Assays:
[1] = tested on: p-CaMKII; conditions: cerebellum of TAF1 edited animals; SAK3 0.25 mg/kg p.o.
Procedure: (§1) After weaning, the rat pups were separated from the dams and maintained 4 per cage. Animals were divided into six groups. […] Rats were sacrificed at PD35. Animals were behaviorally assessed before being euthanized for histological and protein expression analysis. All biochemical, electrophysiology, and behavior experiments were performed in a blinded fashion. Animal protocols were approved by the Institutional Animal Care and Use Committee of the College of Medicine at the University of Arizona and conducted in accordance with the Guide for Care and Use of Laboratory Animals published by the National Institutes of Health.
(§2) Intracerebroventricular injections: Bilateral intracerebroventricular (ICV) injections were performed as previously described in Sprague-Dawley (SD) rat pups on postnatal day 3. Briefly, newborn SD rat puts were anesthetized by isoflurane. A 10 μl syringe (Hamilton Gastight Syringe, #1701) was used to pierce the skull (coordinates from bregma: −0.6 mm posterior, ±1.75 mm lateral/medial, and −2.5 mm ventral), and 2.5 μl of CRISPR lentivirus (gRNA-control or gRNA-TAF1) was injected into each cerebral ventricle without opening the scalp. Neonatal rat pups were kept with the dam until weaned.
(§3) Western blotting analysis: After decapitation of animals, brain tissue from the cerebellum was dissected, snap frozen in liquid nitrogen prior to storage at −80° C. until analysis. Western blot analyses were performed as described in Janakiraman et al (Janakiraman, U., Yu, J., Moutal, A., Chinnasamy, D., Boinon, L., Batchelor, S. N., Anandhan, A., Khanna, R., and Nelson, M. A. (2019) TAF1-gene editing alters the morphology and function of the cerebellum and cerebral cortex. Neurobiol Dis 132, 104539). In brief, frozen samples were homogenized with a RIPA buffer and centrifuged at 4 °C, 20,000xg for 20 min. Supernatant protein concentrations were determined using BCA method (Catalog No: #23227, Thermo Scientific), and samples were then boiled 5 min in Laemmli's sample buffer (Catalog No: NP0008, Life Technologies). Equal amounts of protein were loaded onto and run on SDS-polyacrylamide gels (Catalog No: #4568084, Bio-Rad) and then transferred to polyvinylidene difluoride membrane (Catalog No: #1620177, Bio-Rad). After transfer, membranes were blocked with TBST solution (50 mM Tris-HCl, pH 7.5, 150 mM NaCl, and 0.1% Tween 20) containing 5% non-fat dry milk at 4 °C for 1 hour. After blocking membranes were incubated overnight at 4° C. with anti-CaMKII (pan) (1:500; Cell Signaling), anti-phospho-CaMKII (Thr-286) (1:1000; Cell Signaling), anti-cleaved caspase-3 (Asp175) (1:1000; Cell Signaling), anti-Bax (1:1000; Cell Signaling) anti-Bcl-2 (1:1000; Abcam), anti-phospho-GSK3p(Ser9) (1:1000; Cell Signaling), anti-GSK3p (1:1000; Cell Signaling), anti-BDNF (1:750; Abcam), anti-Foxp2 (1:1000; Abcam), anti-CRMP2 pThr509/Thr514 (1:1000; Kina Source Limited), anti-CRMP2 (1:1000; Sigma), and 6111-Tubulin (1:1000; Promega) in 3% BSA.

[2] = tested on: phospho-CRMP2 (Thr 509/514); conditions: TAF1 edited animals; SAK3 0.25 mg/kg p.o.
Procedure: as §1, §2, §3

[3] = tested on: FOXP2; conditions: TAF1-edited animals; SAK3 0.25 mg/kg p.o.
Procedure: as §1, §2, §3

[4] = tested on: Phospho (Ser 9)-GSK3β; conditions: SAK3 0.25 mg/kg p.o.
Procedure: as §1, §2, §3

[5] = tested on: BDNF; conditions: TAF1 edited animals; cerebral cortex samples; SAK3 0.25 mg/kg p.o.
Procedure: as §1, §2, §3

[6] = tested on: cleaved caspase 3; conditions: TAF1 edited animals; SAK3 0.25 mg/kg p.o.; Western
Procedure: as §1, §2, §3

[7] = tested on: B-cell lymphoma 2 (BcI-2); conditions: TAF1 edited animals; SAK3 0.25 mg/kg p.o.; Western
Procedure: as §1, §2, §3

[8] = tested on: BCL2 Associated X (BAX); conditions: TAF1 edited animals; SAK3 0.25 mg/kg p.o.; Western
Procedure: as §1, §2, §3

[9] = tested on: TAF1-edited animals
Procedure: as §1, §2

[10] = tested on: cerebral cortex; conditions: TAF1 edited animals; SAK3 0.25 mg/kg p.o.
Procedure: as §1, §2

[11] = tested on: cerebral cortex neurons; conditions: TAF1-edited animals
Procedure: as §1, §2

[12] = tested on: CaV3.1 T-type channel; conditions: TAF-1 edited animals; SAK3 0.25 mg/kg p.o.
Procedure: as §1, §2
(§4) Rats (n=6 animals per experimental condition) were perfused with saline, and 4% formaldehyde in phosphate buffer saline (PBS) at PD 35, and the brains were extracted and post-fixed in 4% paraformaldehyde for 8 hours at 4° C. Cerebral cortex sections were cut sagittally at 20 μm using a cryostat (Microm HM 505 E). After rinsing the sections in PBS for 5 min, the sections were incubated with a 0.1% H2O2 solution in PBS for 5 min, rinsed in PBS for 5 times for 5 min, and incubated for 30 min with 0.4% Triton X-100, rinsed in PBS and blocked with 8% goat serum and 1% Triton X-100 in PBS. After blocking, the sections were incubated at 4° C. overnight with the indicated antibodies diluted in 4% goat serum in PBS. The sections were washed in 1% goat serum in PBS, incubated with secondary antibody anti-rabbit Alexa fluor 488 (Life Technologies) or anti-mouse Alexa fluor 488 (Life Technologies), as needed, in 4% goat serum for 2 h, washed with PBS 3 times for 5 mins, and incubated with DAPI (Catalogue No: D1306, Thermofisher Scientific) at a concentration of 50 ng/ml for 2 mins. Sections were then washed and further air dried, and coverslip with glycerol.

[13] = tested on: AKT (phosphorylated at Ser 473); conditions: cortex of TAF-1 edited animals; SAK3 0.25 mg/kg p.o.
Procedure: as §1, §2, §4

[14] = tested on: GFAP-positive astrocytes; conditions: TAF1-edited animals; SAK3 0.25 mg/kg p.o.; vs TAF1 edited group
Procedure: as §1, §2, §4

[15] = tested on: BDNF; conditions: TAF1 edited animals; SAK3 0.25 mg/kg p.o.
Procedure: as §1, §2, §4

[16] = tested on: Iba1-positive microglia; conditions: TAF1-edited animals; SAK3 0.25 mg/kg p.o.; vs TAF1 edited group
Procedure: as §1, §2, §4

[17] = tested on: TAF1 Intellectual Disability Syndrome
Source text: A child is brought by their parent to see their pediatrician for a routine childhood check-up. During the check-up, the pediatrician notices some minor motor deficits in the child. The pediatrician communicates their concerns about the child to their parent. […] A week later, the child is taken in for genetic testing. A month later, the child is brought back to the pediatrician's office so that the pediatrician may discuss the genetic testing results with their parents.

[18] = tested on: gRNA-TAF1 edited Purkinje cells; conditions: gRNA-TAF1 edited Purkinje cells in cerebellar slices
Procedure: as §2

[19] = SAK3 0.25 mg/kg p.o. PD21 to PD35, vs TAF1-edited animals

CCOC(=O)C1=C(N2CCCCC2)C2(CC1=O)C(=O)N=C1C(C)=CC=CN12 (stereo not drawn) [SAK3, ethyl 8′-methyl-2′, 4-dioxo-2-(piperidin-1-yl)-2′H-spiro [cyclopent[2]ene-1,3′-imidazo[1,2-a]pyridine]-3-carboxylate]
CaMKII activation (phosphorylation at T286) [1]: restoration of CaMKII activation in the cerebellum of SAK3 treated animals was not observed
phospho-CRMP2 (Thr 509/514) levels [2]: restored phospho-CRMP2 levels
FOXP2 levels [3]: restored FOXP2
Phospho (Ser 9)-GSK3β levels ([4]; TAF1 edited animals, cerebral cortex samples): increased phopho-GSK3β levels
p-GSK3β levels ([4]; gRNA-TAF1 edited animals, cerebellum samples): rescued by SAK3 treatment
BDNF expression (Western analysis) [5]: restored BDNF expression to the levels in Naïve and gRNA-control groups
Activated (cleaved) caspase 3 level [6]: downregulation of activated caspase 3
Bcl-2 level [7]: up-regulation of B-cell lymphoma 2 (BcI-2)
BAX level [8]: downregulation of the pro-apoptotic factor BCL2 Associated X (BAX)
Grooming frequency (number of groomings) ([9]; SAK3 0.25 mg/kg p.o. PD21 to PD35, open field 5 min): blunted by SAK3 treatment
Beam crossing time [9, 19]: rescue of the beam crossing time
Number of foot slip errors [9, 19]: rescue of the beam crossing time and foot slip errors
Number of TUNEL positive cells [10]: reduced the number of TUNEL positive cells to control levels
Morphology of the cells in the cortex (Nissl staining) ([11]; SAK3 0.25 mg/kg p.o. PD21 to PD35): improved the morphology of the cells in the cortex
Number of viable cells in the cerebral cortex ([11]; SAK3 0.25 mg/kg p.o., vs TAF1-edited animals): increased the number of viable cells
CaV3.1 T-type channel expression [12]: restored by SAK3 treatment
Activated AKT (phosphorylated at Ser 473) expression [13]: prevented by SAK3 treatment
Number of GFAP-positive cells [14]: increase the number of GFAP-positive cells
BDNF expression (immunofluorescence, BDNF-positive cells) [15]: restored BDNF expression to the levels in Naïve and gRNA-control groups
Number of Iba1-positive cells [16]: decrease the number of Iba1-positive cells
Motor skills and cognitive abilities ([17]; child with TAF1 ID syndrome, SAK3 composition orally, after six months): improved motor skills and cognitive abilities
Side effects ([17]; in vivo, po): No side effects reported
Amplitudes of sEPSC ([18]; SAK3 0.1 nM): No changes
Frequency of sEPSC ([18]; SAK3 0.1 nM in perfusion, held at −70 mV, mean±S.E.M.): 2.13±0.29 Hz

Source: patent US20230233544A1, “T-TYPE CALCIUM CHANNEL ENHANCER FOR TREATING TAF1 ASSOCIATED NEUROLOGICAL DEFECTS” (ARIZONA BOARD OF REGENTS ON BEHALF OF THE UNIVERSITY OF …, priority 2020, published 2023)
